From US7294637B2 (Sepracor, Inc., priority 2000, dated 2007)
Where two headings read alike, the source gives them in different places.

Assays:
DAT = DAT (Homo sapiens, UniProt Q01959); assay: cell-based; design: expressed in transfected cells; conditions: hDAT cell line; read-out: DA Uptake, Functional Assays (antagonism, EC50)
rats [1] = assay: Behavioral despair assay in rats, 3 i.p. injections (Example 143); type: in vivo, rat; conditions: for % variation of the total duration of immobility: 3 i.p. injections 24 h, 5 h and 1 h before test
Source text: The objective of this study was to assess the antidepressant effects of test compounds 124, 125, 126, and 127 in the behavioral despair assay in rats according to the methods described by Porsolt R. D., Anton G., Blavet N., Jalfre M., Behavioural despair in rats: a new model sensitive to antidepressant treatment, Eur. J. Pharmacol., 1978, 47, 379-391. The animals were preconditioned in a pretest session, where the rats were individually forced to swim inside a vertical plexiglass cylinder containing water maintained at 19-20° C. After 15 minutes in the water, they were allowed to dry for 15 minutes in a heated enclosure. Twenty four hours later, they were replaced in the cylinder and the total duration of immobility was measured during a 5 minute test (test session). The test compounds and vehicle were administered as a series of 3 intraperitoneal injections 24 h, 5 h and 1 h before the 5 minute test on the second day.
(§1) The results are expressed as the percentage of variation of the total duration of immobility calculated from the mean value of the vehicle-treated group (% variation=[(immobility duration of vehicle-immobility duration of test compound)/(immobility duration of vehicle)]×100%).

rat = assay: Acute toxicity assessment, maximum tolerated dose i.v., rat; type: in vivo; conditions: rats, 30 mg/kg i.v.
Protocol: (§2) An in vivo evaluation was carried out to determine the maximum tolerated dose of numerous test compounds in two animal species (mouse and rat). The compounds were administered i.v. and the animals were then observed for 72 h. Compounds 114, 115, 113, 110, 124, 125, 129, and 130 were solubilized in 5% dextrose (w/v)/polyethylene glycol 400 (4:1 v/v). Compounds 126, 127, 131, and 132 were solubilized in 10% hydroxypropyl-β-cyclodextrin (w/v).

serotonin transporter [2] = molecular target: T1, serotonin transporter (Homo sapiens, UniProt P31645); assay: Functional activity, serotonin uptake inhibition in human HEK-293 cell lines; type: cell-based; design: expressed in transfected cells; host or cells: HEK-293; conditions: human HEK-293 cell lines; read-out: 5-HT Uptake, Functional Assays (antagonism, EC50)
T1 sequence (P31645 whole entry): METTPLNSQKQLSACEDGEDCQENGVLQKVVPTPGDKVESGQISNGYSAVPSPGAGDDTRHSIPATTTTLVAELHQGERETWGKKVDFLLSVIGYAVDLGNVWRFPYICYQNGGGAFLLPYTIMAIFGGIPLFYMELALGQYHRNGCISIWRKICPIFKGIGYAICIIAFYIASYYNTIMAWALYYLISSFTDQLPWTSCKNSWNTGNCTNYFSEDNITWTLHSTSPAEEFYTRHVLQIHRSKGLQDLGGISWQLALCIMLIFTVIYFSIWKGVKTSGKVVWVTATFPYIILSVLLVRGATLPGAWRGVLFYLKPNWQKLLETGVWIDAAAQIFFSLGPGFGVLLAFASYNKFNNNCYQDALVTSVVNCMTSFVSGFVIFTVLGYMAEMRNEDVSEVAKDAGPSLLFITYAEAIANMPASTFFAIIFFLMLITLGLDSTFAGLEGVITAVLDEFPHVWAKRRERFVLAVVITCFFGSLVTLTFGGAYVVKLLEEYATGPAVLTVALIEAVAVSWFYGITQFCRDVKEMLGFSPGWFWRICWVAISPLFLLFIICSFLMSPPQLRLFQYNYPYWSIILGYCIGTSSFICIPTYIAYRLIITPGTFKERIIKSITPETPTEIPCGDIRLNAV

dopamine transporter = dopamine transporter (Homo sapiens, UniProt Q01959); assay: DA uptake: displacement of dopamine ligands in vitro (methods of Gu et al.); conditions: DA Uptake, Uptake Profile (IC50, nM), displacement of dopamine ligands in vitro
dopamine transporter, sequence (Q01959 whole entry): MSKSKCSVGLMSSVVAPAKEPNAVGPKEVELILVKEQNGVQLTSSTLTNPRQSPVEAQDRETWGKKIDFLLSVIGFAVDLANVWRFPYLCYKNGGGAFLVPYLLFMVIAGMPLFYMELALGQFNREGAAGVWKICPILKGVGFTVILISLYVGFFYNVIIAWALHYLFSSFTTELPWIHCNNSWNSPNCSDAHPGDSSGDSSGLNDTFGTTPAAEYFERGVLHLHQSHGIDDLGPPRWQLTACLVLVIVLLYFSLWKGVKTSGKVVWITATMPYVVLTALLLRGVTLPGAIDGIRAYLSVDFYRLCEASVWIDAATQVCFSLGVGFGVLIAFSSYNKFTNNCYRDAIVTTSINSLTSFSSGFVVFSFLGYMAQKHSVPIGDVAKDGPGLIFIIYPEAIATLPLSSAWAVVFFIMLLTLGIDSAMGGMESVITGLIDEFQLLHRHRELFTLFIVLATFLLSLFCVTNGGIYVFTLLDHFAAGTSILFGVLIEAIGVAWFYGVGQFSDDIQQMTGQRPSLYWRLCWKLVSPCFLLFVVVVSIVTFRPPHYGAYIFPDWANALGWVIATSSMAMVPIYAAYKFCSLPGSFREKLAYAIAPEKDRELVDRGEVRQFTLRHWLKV

[3] = molecular target: T2, norepinephrine transporter (Homo sapiens, UniProt P23975); assay: NE uptake: displacement of norephinephrine ligands in vitro (methods of Galli et al.); type: binding; conditions: NE Uptake, Uptake Profile (IC50, nM)
T2 sequence (P23975 whole entry): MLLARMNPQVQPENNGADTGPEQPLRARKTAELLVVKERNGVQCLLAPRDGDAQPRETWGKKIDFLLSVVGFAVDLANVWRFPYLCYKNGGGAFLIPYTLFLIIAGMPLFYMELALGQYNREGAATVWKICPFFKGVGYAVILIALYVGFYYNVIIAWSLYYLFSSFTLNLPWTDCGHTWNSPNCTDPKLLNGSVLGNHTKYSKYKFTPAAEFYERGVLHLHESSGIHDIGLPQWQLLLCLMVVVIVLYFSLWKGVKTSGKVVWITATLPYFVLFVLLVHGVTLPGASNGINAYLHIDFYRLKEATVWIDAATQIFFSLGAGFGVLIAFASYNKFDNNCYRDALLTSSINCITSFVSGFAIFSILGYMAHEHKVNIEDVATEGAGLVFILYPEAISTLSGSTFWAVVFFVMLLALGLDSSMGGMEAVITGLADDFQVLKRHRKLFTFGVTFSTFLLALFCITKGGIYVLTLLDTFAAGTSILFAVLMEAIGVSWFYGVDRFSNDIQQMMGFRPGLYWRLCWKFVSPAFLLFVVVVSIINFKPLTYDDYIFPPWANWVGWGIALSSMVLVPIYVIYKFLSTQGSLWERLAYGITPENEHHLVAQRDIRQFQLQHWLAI

mouse = assay: Acute toxicity assessment, maximum tolerated dose i.v., mouse; type: in vivo; conditions: mice, 30 mg/kg i.v.
Protocol: as §2

serotonin transporter [4] = molecular target: T1, serotonin transporter; assay: 5-HT uptake: displacement of serotonin ligands in vitro (methods of Gu et al.); type: binding; conditions: displacement of serotonin ligands in vitro; read-out: 5-HT Uptake, Uptake Profile (IC50)
rats [5] = type: in vivo, rat; conditions: 1 h before test
Protocol: The animals were preconditioned in a pretest session, where the rats were individually forced to swim inside a vertical plexiglass cylinder containing water maintained at 19-20° C. […] Twenty four hours later, the compounds were administered intraperitoneal to the animals. One hour after administration of the test compound, animals were put back into the cylinder containing water. The total duration of immobility was measured during the last 4 minutes of a 6 minute test.
as §1

[6] = molecular target: T2, norepinephrine transporter; assay: Functional activity, norephinephrine uptake inhibition in MDCK cell lines; type: cell-based
rats and monkeys = conditions: rats; cited from earlier work

DAT, sequence (Q01959 whole entry): as the sequence (Q01959 whole entry) above

O[C@@H](CN1CCC[C@@H](COc2ccc(C(F)(F)F)cc2)C1)C1(c2ccc(Cl)cc2)CCC1 [compound 127, 1S-1-[1-(4-Chloro-phenyl)-cyclobutyl]-2-[(3R)-3-(4-trifluoromethyl-phenoxymethyl)-piperidin-1-yl]-ethanol]
EC50 (DAT): < 10 nM
% variation of the total duration of immobility (rats [1]; 1.0 mg/kg): 14%
% variation of the total duration of immobility (rats [1]; 2.0 mg/kg): 39%
effectiveness (statistically significant variation >30%) (rats [1]; 2.5 mg/kg): effective
% variation of the total duration of immobility (rats [1]; 2.5 mg/kg): 39%
% variation of the total duration of immobility (rats [1]; 3.0 mg/kg): 64%
tolerability and mortality after 72 h (rat): well tolerated
EC50 (serotonin transporter [2]): > 1000 nM
IC50 (dopamine transporter): < 10 nM
IC50 [3]: < 100 nM
tolerability and mortality after 72 h (mouse): well tolerated
IC50 (serotonin transporter [4]): > 1000 nM
% variation of the total duration of immobility (rats [5]; 2.5 mg/kg i.p.): 25%
% variation of the total duration of immobility (rats [5]; 10 mg/kg i.p.): 67%
EC50 [6]: < 1000 nM

CNCCC(Oc1ccc(C(F)(F)F)cc1)c1ccccc1 (stereo not shown) [fluoxetine]
effect on self-administration of cocaine (rats and monkeys): decreased self-administration of cocaine
